The nature of series [1]: Lens penetration and ocular distribution of 14-C labelled eye drops after multiple topical ocular administration. Type of series: in vivo, chinchilla pigmented rabbits. On the procedure:
In a first animal model, the ocular distribution and lens penetration of diclofenac potassium and diclofenac sodium is determined after multiple topical ocular administration of a corresponding eye drop composition. […] At regular intervals post-instillation (0.5, 1.5, 2.0 hours), the animals are sacrificed and both eyes are removed. Said eyes are microdissected and the ocular distribution of the radioactivity is measured by a standard scintillation beta counting method.
Lens penetration and ocular distribution of diclofenac potassium and diclofenac sodium were determined after multiple topical ocular administration of corresponding 14-C labelled eye drop composition into the conjunctival sac of the right eye of pigmented rabbits.
At 0.5, 1.5, 2 hours post-instillation, 5 animals for each time-point and each treatment group were sacrificed and the radioactivity content (in ng-Eq/g of structure) in the cornea, aqueous humor, iris-ciliary body, vitreous, whole blood and plasma was measured. At 2 hours post-instillation, the left eyes were removed and the ocular distribution was measured by a standard scintillation beta counting method. The right lenses were used for autoradiography.
The areas under the curve (AUC: ng-Eq/g of structure versus time) were calculated and statistically compared.

For series [2], the system named is arachidonic acid induced uveitis. In words: Arachidonic acid induced uveitis, aqueous flare by laser cell flare meter (LCFM).
The test system of another series is uveitis. Kind of series: Uveitis models in rabbits (all the aforementioned animal models: arachidonic acid, argon laser iris photocoagulation, paracentesis). Type of series: in vivo, pigmented rabbits. Particulars: compared to diclofenac sodium. On the procedure:
Uveitis is induced in said model by an argon laser iris photocoagulation in pigmented rabbits. Said iris photocoagulation is induced by 500 μm argon laser burns (power 750 mW, duration 0.1 sec). The inflammatory processes resulting therefrom are measured every 30 minutes after the laser induced photo-coagulation, by using the laser cell flare meter (LCFM) technique.
In addition to the non invasive LCFM evaluation of the above mentioned animal model, an invasive evaluation is carried out. Therefore the rabbits are sacrificed one hour and in regular intervals after which said eyes have been subjected to the traumatic uveitis by photocoagulation, and the aqueous humor of said rabbit eyes is sampled. The aqueous protein levels, cell counts and prostaglandins (PGE2, PGD2, 6-keto PGF1α) which represent the degree of an inflammation are biochemically investigated and quantified.
Another animal model is used for the induction of a traumatic uveitis. It is the induction of a uveitis by the paracentesis of the anterior chamber of the rabbit eye. In analogy to the previously described laser induced uveitis model, drugs to be tested, are again administred prior to the paracentesis challenge. […] The aqueous protein levels are again analyzed, quantified and then correlated with the degree of an inflammation.

In a further series the test system is eye. Kind of series: Pharmacological studies: topical (ocular) tolerance, efficacy, onset and duration of action.

This is an account of results in patent publication US5891913A, “Ophthalmic and aural compositions containing diclofenac potassium” (priority 1994, dated 1999).

“Also recorded” adds a separate entry of the source.

Turning to `O=C(O)Cc1ccccc1Nc1c(Cl)cccc1Cl` [diclofenac potassium, potassium 2-[(2,6-dichlorophenyl)amino]-phenyl acetate], the “ocular penetration / levels of radioactivity (in words)” value in series [1] (in comparison to diclofenac sodium, acetate) is “much superior; also recorded: clearly displayed higher levels of radioactivity”. The “ocular distribution, order of concentrations (in words)” value in series [1] (rabbit, in vivo) was “highest concentrations are found in the cornea, and in descending order in the aqueous humor, in the iris ciliary body and in the vitreous”. Further, the “efficacy / degree of inflammation (in words)” value in series [2] (0.05% diclofenac potassium versus 0.1% diclofenac sodium) is “almost totally suppressed”. Also, the “fold efficacy of diclofenac sodium” value in series [2] (taking into account 0.1% versus 0.05% drug concentration) is given as “more than five fold”. The “efficacy in all the aforementioned animal models (in words)” value with uveitis is “better efficacy”. For the same compound, in the series with eye (e.g. in the eye), the “duration of action (in words)” value is given as “long lasting duration of action” and the “onset of action (in words)” value was “surprisingly short onset of action”. The “topical tolerance, e.g. ocular tolerance, and efficacy (in words)” value in the series with eye (in comparison to diclofenac sodium) is “much better topical tolerance, e.g. ocular tolerance, and efficacy”.
